For data set [1], the system named is patients with septic shock and elevated adrenomedullin. The data set is described as follows: AdrenOSS-2 phase II clinical trial, 14-day mortality. The format is in vivo, human. Particulars: vs placebo. From the text:
AdrenOSS-2 is a double-blind, placebo-controlled, randomized, multicenter, proof of concept and dose-finding phase II clinical trial to investigate the safety, tolerability and efficacy of the N-terminal ADM antibody named Adrecizumab in patients with septic shock and elevated adrenomedullin (Geven et al. BMJ Open 2019;9:e024475). In total, 301 patients with septic shock and bio-ADM concentration > 70 pg/mL were randomized (2:1:1) to treatment with a single intravenous infusion over approximately 1 hour with either placebo (n=152), adrecizumab 2 ng/kg (n=72) or adrecizumab 4 ng/kg (n=77). All-cause mortality within 28 (90) days after inclusion was 25.8% (34.8%). Mean age was 68.4 years and 61% were male. For the per protocol analysis, n=294 patients remained eligible, and 14-day all-cause mortality rate was 18.5%.
In patients treated with Adrecizumab (both doses combined, per protocol population), a trend to lower short term mortality (14 days post admission) was observed compared to placebo (Hazard ratio (HR) 0.701 [0.408-1.21], p=0.100) (FIG. 8).

The conditions of data set [2]: phase I study; cited from earlier work.

These results are taken from US20230193348A1, “DPP3 FOR THERAPY GUIDANCE, MONITORING AND STRATIFICATION OF NT-ADM ANTIBODIES IN PATIENTS WITH SHOCK” (4TEEN4 PHARMACEUTICALS GMBH, priority 2020, published 2023).

As for “Adrecizumab: humanized version of an N-terminal anti-ADM antibody; heavy chain SEQ ID NO: 32, light chain SEQ ID NO: 33”, the “HR 14-day mortality” value in data set [1] (patients with DPP3 <40) stood at 0.385; in data set [1] (patients with DPP3 <50 (ng/mL on admission)), 0.426; in data set [1] (patients with DPP3 <60) it was 0.449; in data set [1] (patients with DPP3 <70), 0.546; in data set [1] (patients with DPP3 >40), 1.35; in data set [1] (patients with DPP3 >50 (ng/mL on admission)) it was 1.69. Further, the “HR 14-day mortality” value came to 1.62 in data set [1] (patients with DPP3 >60) and 1.24 in data set [1] (patients with DPP3 >70). Also, in data set [2], the “safety and tolerability, adverse events” value was “no serious adverse events were observed”.
